For one series, the target named is T1, PPARα (Homo sapiens, UniProt Q07869).
T1 construct: PPARα (aa 167 to 469); made in house; host or cells: E. coli BL21 (pLysS)
T1 sequence (Q07869 167-468 limits assumed): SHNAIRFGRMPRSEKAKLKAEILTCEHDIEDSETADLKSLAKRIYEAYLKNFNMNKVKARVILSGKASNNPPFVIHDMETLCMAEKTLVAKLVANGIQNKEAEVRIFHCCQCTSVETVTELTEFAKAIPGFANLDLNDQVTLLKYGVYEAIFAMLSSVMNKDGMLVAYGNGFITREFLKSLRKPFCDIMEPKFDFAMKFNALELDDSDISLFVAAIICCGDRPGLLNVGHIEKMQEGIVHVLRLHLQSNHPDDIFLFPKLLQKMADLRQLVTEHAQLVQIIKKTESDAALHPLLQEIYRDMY
The experiment in a line: PPARα radioligand binding assay (scintillation proximity, GST-PPARα-LBD). To be noted: SPA radioligand binding. From the text:
(§1) Background information on the performed assays can be found in: Nichols J S et al. “Development of a scintillation proximity assay for peroxisome proliferator-activated receptor gamma ligand binding domain”, (1998) Anal. Biochem. 257: 112–119.
(§2) Full-length cDNA clones for humans PPARδ and PPARα and mouse PPARγ were obtained by RT-PCR from human adipose and mouse liver cRNA, respectively, cloned into plasmid vectors and verified by DNA sequencing. Bacterial and mammalian expression vectors were constructed to produce glutathione-s-transferase (GST) and Gal4 DNA binding domain proteins fused to the ligand binding domains (LBD) of PPARδ (aa 139 to 442), PPARγ (aa 174 to 476) and PPARα (aa 167 to 469). To accomplish this, the portions of the cloned sequences encoding the LBDs were amplified from the full-length clones by PCR and then subcloned into the plasmid vectors. Final clones were verified by DNA sequence analysis. […]
PPARα receptor binding was assayed in TKE50 (50 mM Tris-HCl, pH 8, 50 mM KCl, 2 mM EDTA, 0.1 mg/ml fatty acid-free BSA and 10 mM DTT). […] All binding assays were performed in 96 well plates and the amount of bound ligand measured on a Packard TopCount using OptiPlates (Packard). Nonspecific binding was determined in the presence of 10^−4 M unlabelled compound. […]
In general terms: Scintillation proximity formats need no separation of bound from free tracer.

In another series the target is T2, PPARγ (Mus musculus, UniProt P37238).
T2 construct: PPARγ (aa 174 to 476); made in house; host or cells: E. coli BL21 (pLysS)
T2 sequence (P37238 204-505): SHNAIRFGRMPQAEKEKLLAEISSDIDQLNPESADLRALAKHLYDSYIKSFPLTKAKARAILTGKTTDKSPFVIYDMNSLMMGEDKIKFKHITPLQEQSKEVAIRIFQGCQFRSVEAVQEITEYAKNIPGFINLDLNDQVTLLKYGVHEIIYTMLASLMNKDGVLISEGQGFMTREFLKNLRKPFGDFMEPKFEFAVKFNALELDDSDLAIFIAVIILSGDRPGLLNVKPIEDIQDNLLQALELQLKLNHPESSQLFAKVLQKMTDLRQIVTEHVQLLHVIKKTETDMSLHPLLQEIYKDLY
The experiment in a line: PPARγ radioligand binding assay (scintillation proximity, GST-PPARγ-LBD). To be noted: SPA radioligand binding.
Source text: as §1, §2
PPARγ receptor binding was assayed in TKE50 (50 mM Tris-HCl, pH 8, 50 mM KCl, 2 mM EDTA, 0.1 mg/ml fatty acid-free BSA and 10 mM DTT). […] All binding assays were performed in 96 well plates and the amount of bound ligand measured on a Packard TopCount using OptiPlates (Packard). Nonspecific binding was determined in the presence of 10^−4 M unlabelled compound. […]

A further series concerns the target T3, PPARδ (Homo sapiens, UniProt Q03181).
T3 construct: PPARδ (aa 139 to 442); made in house; host or cells: E. coli BL21 (pLysS)
T3 sequence (Q03181 139-441 limits assumed): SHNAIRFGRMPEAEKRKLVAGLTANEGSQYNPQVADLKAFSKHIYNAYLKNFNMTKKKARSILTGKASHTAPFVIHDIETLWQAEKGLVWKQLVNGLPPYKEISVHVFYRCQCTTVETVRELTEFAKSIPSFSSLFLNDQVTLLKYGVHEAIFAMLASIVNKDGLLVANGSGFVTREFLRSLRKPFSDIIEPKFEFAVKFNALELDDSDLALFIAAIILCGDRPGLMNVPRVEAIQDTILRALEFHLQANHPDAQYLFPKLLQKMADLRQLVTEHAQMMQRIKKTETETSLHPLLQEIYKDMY
The series can be described thus: PPARδ radioligand binding assay (scintillation proximity, GST-PPARδ-LBD). To be noted: SPA radioligand binding.
Source text: as §1, §2
PPARδ receptor binding was assayed in HNM10 (50 mM Hepes, pH 7.4, 10 mM NaCl, 5 mM MgCl2, 0.15 mg/ml fatty acid-free BSA and 15 mM DTT). […] Radioligand was added and the reaction incubated at RT for 1 h and scintillation proximity counting performed in the presence of test compounds was determined. All binding assays were performed in 96 well plates and the amount of bound ligand was measured on a Packard TopCount using OptiPlates (Packard). […]

For orientation: melting point means the temperature of the solid-liquid transition. As usually defined, the IC50 is the concentration needed to halve the response being measured. A high value points to a need for much substance.

In the case of `Cc1nc(-c2ccc(C(F)(F)F)cc2)sc1COc1ccc2c(c1)cc(C)n2CC(=O)O` [Example 32, {2-methyl-5-[4-methyl-2-(4-trifluoromethyl-phenyl)-thiazol-5-ylmethoxy]-indol-1-yl}-acetic acid], the melting point was 187 to 188 °C (dec.).

Turning to `Cc1nc(-c2ccc(C(F)(F)F)cc2)sc1CCCOc1cccc2c1ccn2CC(=O)O` [Example 8, (4-{3-[4-methyl-2-(4-trifluoromethyl-phenyl)-thiazol-5-yl]-propoxy}-indol-1-yl)-acetic acid], the IC50 on PPARα is 227 nM; at PPARγ, no less than 10000 nM; on PPARδ, 42 nM.

Consider `Cc1nc(-c2ccc(C(F)(F)F)cc2)sc1C(C)Oc1ccc2ccn(CC(=O)O)c2c1` (racemic) [Example 2, [rac]-(6-{1-[4-methyl-2-(4-trifluoromethyl-phenyl)-thiazol-5-yl]-ethoxy}-indol-1-yl)-acetic acid], for which the IC50 on PPARα is 2230 nM; on PPARγ, no less than 10000 nM; on PPARδ it was 24 nM.
